Measured values: patent publication US11000033B2, “Ketone or oxime compound, and herbicide” (NISSAN CHEMICAL CORPORATION, priority 2014, dated 2021)

Tests used:
Assay type in all cases: in vivo
Setaria viridis [1] = assay: Test Example 5: herbicidal effect by foliage application, plastic box (symbol G); settings: 320 g/ha, 3 weeks after application
How it was run: (§1)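 Leaf-applied emulsion, water-diluted to a preset herbicide dose, on two-week-old seedlings raised in a 25° C. to 30° C. greenhouse; injury rated at 3 weeks using earlier criteria.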

Amaranthus retroflexus [2] = assay: Test Example 5: herbicidal effect by foliage application, plastic box (symbol N); settings: 320 g/ha, 3 weeks after application
How it was run: as §1

Amaranthus retroflexus [3] = assay: Test Example 4: herbicidal effect by soil treatment (symbol N)
How it was run: (§2)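 Seeds were sown in sterilized diluvial soil, covered with about 1.5 cm of soil, and the soil surface was sprayed with a water-diluted emulsion of the compound at a predetermined rate. Plants grew in a greenhouse at 25° C. to 30° C.; effects were scored visually 3 weeks after application.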

wheat [4] = assay: Test Example 4: effect on crop by soil treatment (symbol e); settings: for e: wheat, effect grade on crop: 320 g/ha
How it was run: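 Crop seed is sown in spots together with several weed species in a box of sterilized diluvial soil. It is covered by about 1.5 cm of soil and kept in a greenhouse held between 25° C. and 30° C.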

Stellaria media [5] = assay: Test Example 4: herbicidal effect by soil treatment (symbol P)
How it was run: as §2

Abutilon theophrasti = assay: Test Example 5: herbicidal effect by foliage application, plastic box (symbol M); settings: 320 g/ha, 3 weeks after application
How it was run: as §1

beet = assay: Test Example 5: effect on crop by foliage application, plastic box (symbol f); settings: 320 g/ha, 3 weeks after application
How it was run: (§3)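 Greenhouse test at 25° C. to 30° C. Seeds of crops and weeds were spot-sown in boxes of sterilized diluvial soil under roughly 1.5 cm soil cover, then grown for foliage treatment.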

wheat [6] = assay: Test Example 5: effect on crop by foliage application, plastic box (symbol e); settings: 320 g/ha, 3 weeks after application
How it was run: as §3

Setaria viridis [7] = assay: Test Example 4: herbicidal effect by soil treatment (symbol G)
How it was run: as §2

[8] = test system: Echinochloa oryzacola Vasing.; assay: Test Example 1: herbicidal activity, application before weed generation in submerged conditions (symbol A); settings: application herbicide amount 320 g/ha
How it was run: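 In a flooded pot test with alluvial soil, the emulsion-formulated compound was diluted with water to a predetermined amount and applied to the floodwater immediately on the sowing day. Pots were held in a greenhouse at 25–30 °C for 3 weeks before each weed was rated.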

[9] = test system: Echinochloa crus-galli var. crus-galli; assay: Test Example 3: herbicidal effect by foliage application, Wagner pot (symbol H); settings: application herbicide amount 320 g/ha
How it was run: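 Foliar spray of a water-diluted emulsion at a predetermined herbicide amount, applied to 14-day-old plants. Seedlings were raised in flooded alluvial soil (0.1–0.5 cm water) at 25–30 °C in a greenhouse. Injury was rated after 3 weeks against fixed criteria.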

transplanted rice plant = assay: Test Example 1: effect on crop, application before weed generation in submerged conditions (symbol a); settings: application herbicide amount 320 g/ha
How it was run: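 Rice at 2.5 leaf stage transplanted into submerged soil (4 cm depth) sown with three weed species; herbicide applied before weed emergence.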

Avena fatua = assay: Test Example 5: herbicidal effect by foliage application, plastic box (symbol I); settings: 320 g/ha, 3 weeks after application
How it was run: as §1

Stellaria media [10] = assay: Test Example 5: herbicidal effect by foliage application, plastic box (symbol P); settings: 320 g/ha, 3 weeks after application
How it was run: as §1

Lolium multiflorum Lam. = assay: Test Example 4: herbicidal effect by soil treatment (symbol K)
How it was run: as §2

[11] = application herbicide amount 320 g/ha

Row | Structure (SMILES) | G: Setaria viridis, herbicidal effect (criteria 0-5) (Setaria viridis [1]) | N: Amaranthus retroflexus, herbicidal effect (criteria 0-5) (Amaranthus retroflexus [2]) | N: Amaranthus retroflexus, herbicidal effect grade (Amaranthus retroflexus [3]; 320 g/ha) | e: wheat, effect grade on crop (wheat [4]) | P: Stellaria media, herbicidal effect grade (Stellaria media [5]; 320 g/ha) | M: Abutilon theophrasti, herbicidal effect (criteria 0-5) (Abutilon theophrasti) | f: beet, effect on crop (criteria 0-5) (beet) | e: wheat, effect on crop (criteria 0-5) (wheat [6]) | G: Setaria viridis, herbicidal effect grade (Setaria viridis [7]; 320 g/ha) | Herbicidal effect grade, A: Echinochloa oryzacola Vasing. [8] | herbicidal effect on H (Echinochloa crus-galli var. crus-galli), grade 0-5 [9] | Effect grade on crop, a: transplanted rice plant (transplanted rice plant) | I: Avena fatua, herbicidal effect (criteria 0-5) (Avena fatua) | P: Stellaria media, herbicidal effect (criteria 0-5) (Stellaria media [10]) | K: Lolium multiflorum Lam., herbicidal effect grade (Lolium multiflorum Lam.; 320 g/ha) | G: Setaria viridis, herbicidal effect grade (Setaria viridis [1]) | N: Amaranthus retroflexus, herbicidal effect grade (Amaranthus retroflexus [2]) | M: Abutilon theophrasti, herbicidal effect grade (Abutilon theophrasti) | f: beet, effect on crop grade (beet) | e: wheat, effect on crop grade (wheat [6]) | other results
1 | CON=C(C)CC1CC(OC(=O)OCc2ccccc2)=C(c2c(C)cc(C)cc2C)C1=O (stereo not drawn) [1-145] | 5 (Herbicidal ratio of 90% or more (almost completely withered)) | 0 (Herbicidal ratio of 5% or lower (almost no effect)) | 4 (Herbicidal ratio of 70% or higher and lower than 90%) | 5 (Herbicidal ratio of 90% or more (almost completely withered)) | 3 (Herbicidal ratio of 40% or higher and lower than 70%) | 3 (Herbicidal ratio of 40% or higher and lower than 70%) | 2 (Herbicidal ratio of 20% or higher and lower than 40%) | 5 (Herbicidal ratio of 90% or more (almost completely withered)) | 5 (Herbicidal ratio of 90% or more (almost completely withered)) | 5 (Herbicidal ratio of 90% or more (almost completely withered)) | 5 (Herbicidal ratio of 90% or more (almost completely withered)) | 5 (Herbicidal ratio of 90% or more (almost completely withered)) | 5 (Herbicidal ratio of 90% or more (almost completely withered)) | 2 (Herbicidal ratio of 20% or higher and lower than 40%) | 5 (Herbicidal ratio of 90% or more (almost completely withered)) |  |  |  |  |  | 
2 | CCOC(=O)C(C(=O)CC1CC1)C1CC(O)=C(c2c(C)cc(C)cc2C)C1=O (stereo not drawn) [2-025] |  |  |  |  |  |  |  |  |  | 3 (Herbicidal ratio of 40% or higher and lower than 70%) | 3 (Herbicidal ratio of 40% or higher and lower than 70%) | 2 (Herbicidal ratio of 20% or higher and lower than 40%) |  |  |  | 5 (Herbicidal ratio of 90% or more (almost completely withered)) | 0 (Herbicidal ratio of 5% or lower (almost no effect)) | 0 (Herbicidal ratio of 5% or lower (almost no effect)) | 0 (Herbicidal ratio of 5% or lower (almost no effect)) | 0 (Herbicidal ratio of 5% or lower (almost no effect)) | N: Amaranthus retroflexus, herbicidal effect grade (Amaranthus retroflexus [3]; [11]): 0 (Herbicidal ratio of 5% or lower (almost no effect)); e: wheat, effect on crop grade (wheat [4]; [11]): 0 (Herbicidal ratio of 5% or lower (almost no effect)); P: Stellaria media, herbicidal effect grade (Stellaria media [5]; [11]): 0 (Herbicidal ratio of 5% or lower (almost no effect)); G: Setaria viridis, herbicidal effect grade (Setaria viridis [7]; [11]): 5 (Herbicidal ratio of 90% or more (almost completely withered)); I: Avena fatua, herbicidal effect grade (Avena fatua): 0 (Herbicidal ratio of 5% or lower (almost no effect)); P: Stellaria media, herbicidal effect grade (Stellaria media [10]): 0 (Herbicidal ratio of 5% or lower (almost no effect)); K: Lolium multiflorum Lam., herbicidal effect grade (Lolium multiflorum Lam.; [11]): 4 (Herbicidal ratio of 70% or higher and lower than 90%)
3 | C=CCN(CC=C)C(=O)OC1=C(c2c(C)cc(C)cc2C)C(=O)C(CC(C)=NOC)C1 (stereo not drawn) [1-153] | 5 (Herbicidal ratio of 90% or more (almost completely withered)) | 4 (Herbicidal ratio of 70% or higher and lower than 90%) | 0 (Herbicidal ratio of 5% or lower (almost no effect)) | 2 (Herbicidal ratio of 20% or higher and lower than 40%) | 0 (Herbicidal ratio of 5% or lower (almost no effect)) | 4 (Herbicidal ratio of 70% or higher and lower than 90%) | 0 (Herbicidal ratio of 5% or lower (almost no effect)) | 5 (Herbicidal ratio of 90% or more (almost completely withered)) | 1 (Herbicidal ratio of 5% or higher and lower than 20%) | 5 (Herbicidal ratio of 90% or more (almost completely withered)) | 5 (Herbicidal ratio of 90% or more (almost completely withered)) | 4 (Herbicidal ratio of 70% or higher and lower than 90%) | 5 (Herbicidal ratio of 90% or more (almost completely withered)) | 0 (Herbicidal ratio of 5% or lower (almost no effect)) | 4 (Herbicidal ratio of 70% or higher and lower than 90%) |  |  |  |  |  | 
4 | CON=C(C)CC1CC(OC(=O)c2ccc(S(C)(=O)=O)c(C(=O)OC)c2Cl)=C(c2c(C)cc(C)cc2C)C1=O (stereo not drawn) [1-162] |  |  | 4 (Herbicidal ratio of 70% or higher and lower than 90%) | 4 (Herbicidal ratio of 70% or higher and lower than 90%) | 0 (Herbicidal ratio of 5% or lower (almost no effect)) |  |  |  | 5 (Herbicidal ratio of 90% or more (almost completely withered)) | 5 (Herbicidal ratio of 90% or more (almost completely withered)) | 5 (Herbicidal ratio of 90% or more (almost completely withered)) | 5 (Herbicidal ratio of 90% or more (almost completely withered)) |  |  | 5 (Herbicidal ratio of 90% or more (almost completely withered)) | 5 (Herbicidal ratio of 90% or more (almost completely withered)) | 1 (Herbicidal ratio of 5% or higher and lower than 20%) | 4 (Herbicidal ratio of 70% or higher and lower than 90%) | 3 (Herbicidal ratio of 40% or higher and lower than 70%) | 5 (Herbicidal ratio of 90% or more (almost completely withered)) | I: Avena fatua, herbicidal effect grade (Avena fatua): 5 (Herbicidal ratio of 90% or more (almost completely withered)); P: Stellaria media, herbicidal effect grade (Stellaria media [10]): 4 (Herbicidal ratio of 70% or higher and lower than 90%)
5 | CON=C(C)CC1CC(OC(=O)C(C)(C)c2ccc(Cl)cc2)=C(c2c(C)cc(C)cc2C)C1=O (stereo not drawn) [1-148] | 5 (Herbicidal ratio of 90% or more (almost completely withered)) | 2 (Herbicidal ratio of 20% or higher and lower than 40%) | 2 (Herbicidal ratio of 20% or higher and lower than 40%) | 0 (Herbicidal ratio of 5% or lower (almost no effect)) | 0 (Herbicidal ratio of 5% or lower (almost no effect)) | 4 (Herbicidal ratio of 70% or higher and lower than 90%) | 3 (Herbicidal ratio of 40% or higher and lower than 70%) | 5 (Herbicidal ratio of 90% or more (almost completely withered)) | 5 (Herbicidal ratio of 90% or more (almost completely withered)) | 5 (Herbicidal ratio of 90% or more (almost completely withered)) | 5 (Herbicidal ratio of 90% or more (almost completely withered)) | 5 (Herbicidal ratio of 90% or more (almost completely withered)) | 5 (Herbicidal ratio of 90% or more (almost completely withered)) | 3 (Herbicidal ratio of 40% or higher and lower than 70%) | 5 (Herbicidal ratio of 90% or more (almost completely withered)) |  |  |  |  |  | 
